Source: US20140120087A1, “TRIAZOLOPYRIDINES” (BAYER INTELLECTUAL PROPERTY GMBH, priority 2011, published 2014)

Assays:
Mps-1 kinase [1] = biological target: T1, Mps-1 kinase (Homo sapiens, UniProt P33981); experiment: Mps-1 kinase assay with 2 mM ATP (TR-FRET)
T1 sequence (P33981 1-857): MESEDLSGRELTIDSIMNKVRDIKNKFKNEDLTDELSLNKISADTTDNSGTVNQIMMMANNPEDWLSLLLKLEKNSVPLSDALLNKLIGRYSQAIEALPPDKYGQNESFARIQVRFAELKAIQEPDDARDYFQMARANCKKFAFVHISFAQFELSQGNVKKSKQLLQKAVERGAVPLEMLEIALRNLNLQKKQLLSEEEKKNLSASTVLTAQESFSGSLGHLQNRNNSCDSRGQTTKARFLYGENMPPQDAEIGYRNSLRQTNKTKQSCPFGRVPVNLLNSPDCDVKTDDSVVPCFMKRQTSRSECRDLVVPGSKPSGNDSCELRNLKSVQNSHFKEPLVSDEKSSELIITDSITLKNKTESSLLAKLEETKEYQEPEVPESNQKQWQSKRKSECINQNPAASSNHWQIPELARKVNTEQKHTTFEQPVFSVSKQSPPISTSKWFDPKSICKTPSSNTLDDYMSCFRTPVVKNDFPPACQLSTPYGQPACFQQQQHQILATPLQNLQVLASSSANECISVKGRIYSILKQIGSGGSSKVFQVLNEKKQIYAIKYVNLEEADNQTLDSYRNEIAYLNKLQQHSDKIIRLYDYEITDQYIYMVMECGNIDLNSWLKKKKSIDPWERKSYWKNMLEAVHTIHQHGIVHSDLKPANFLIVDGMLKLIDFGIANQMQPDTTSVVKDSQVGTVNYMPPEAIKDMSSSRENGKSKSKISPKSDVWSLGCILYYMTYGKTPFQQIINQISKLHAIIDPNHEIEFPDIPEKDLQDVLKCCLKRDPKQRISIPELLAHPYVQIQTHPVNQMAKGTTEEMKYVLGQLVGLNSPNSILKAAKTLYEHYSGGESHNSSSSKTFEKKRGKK

Mps-1 kinase [2] = biological target: T1, Mps-1 kinase; experiment: Mps-1 kinase assay with 10 μM ATP (TR-FRET)

`Cc1cc(NS(C)(=O)=O)ccc1Nc1nc2ccc(-c3ccc(C(=O)NCc4ccc(F)cc4)cc3)cn2n1` [Example 12.70, N-(4-fluorobenzyl)-4-[2-({2-methyl-4-[(methylsulfonyl)-amino]phenyl}amino)[1,2,4]triazolo [1,5-a]pyridin-6-yl]-benzamide] was tested, and the IC50 (Mps-1 kinase [1]) was 9.5 nM and the IC50 (Mps-1 kinase [2]) was no more than 1 nM.

`COc1cc(C(=O)NCCCF)ccc1Nc1nc2ccc(-c3ccc(C(=O)NCc4ccc(F)cc4)cc3)cn2n1` [Example 12.50, 4-[(6-{4-[(4-fluorobenzyl)-carbamoyl]phenyl}[1,2,4]triazolo [1,5-a]pyridin-2-yl)-amino]-N-(3-fluoropropyl)-3-methoxybenzamide] was tested, and the IC50 (Mps-1 kinase [1]) was 3.1 nM and the IC50 (Mps-1 kinase [2]) was no more than 1 nM.

Compound `COc1cc(C(=O)NCC(F)(F)F)ccc1Nc1nc2ccc(-c3ccc(C(=O)NCc4ccc(Cl)cc4)cc3)cn2n1` [Example 12.72, 4-[(6-{4-[(4-chlorobenzyl)-carbamoyl]phenyl}[1,2,4]triazolo [1,5-a]pyridin-2-yl)-amino]-3-methoxy-N-(2,2,2-trifluoroethyl)benzamide] has an IC50 (Mps-1 kinase [1]) of 16 nM and an IC50 (Mps-1 kinase [2]) of no more than 1 nM.

Compound `CCOc1cc(C(=O)N(C)CC)ccc1Nc1nc2ccc(-c3ccc(NC(=O)Cc4ccc(F)cc4)cc3)cn2n1` [Example 12.19, 3-ethoxy-N-ethyl-4-{[6-(4-{[(4-fluorophenyl)acetyl]-amino}phenyl)[1,2,4]-triazolo[1,5-a]pyridin-2-yl]amino}-N-methyl-benzamide] has an IC50 (Mps-1 kinase [1]) of no more than 1 nM and an IC50 (Mps-1 kinase [2]) of no more than 1 nM.

For `CCOc1cc(S(C)(=O)=O)ccc1Nc1nc2ccc(-c3ccc(NC(=O)Cc4ccc(F)cc4)cc3)cn2n1` [Example 01.32, N-[4-(2-{[2-ethoxy-4-(methylsulfonyl)phenyl]amino}[1,2,4]triazolo[1,5-α]-pyridin-6-yl)phenyl]-2-(4-fluorophenyl)acetamide], the IC50 (Mps-1 kinase [1]) was no more than 1 nM and the IC50 (Mps-1 kinase [2]) was no more than 1 nM.

`NC(=O)c1ccc(Nc2nc3ccc(-c4ccc(NC(=O)Cc5ccc(F)cc5)cc4)cn3n2)c(OC(F)(F)F)c1` [Example 12.25, 4-{[6-(4-{[(4-fluorophenyl)-acetyl]amino}phenyl)[1,2,4]triazolo[1,5-a]pyridin-2-yl]amino}-3-(trifluoro-methoxy)benzamide] gave an IC50 (Mps-1 kinase [1]) of 2.7 nM and an IC50 (Mps-1 kinase [2]) of no more than 1 nM.

Work on `COc1cc(C(=O)NCC(F)F)ccc1Nc1nc2ccc(-c3ccc(NC(=O)Cc4ccc(F)cc4)cc3)cn2n1` [Example 12.07, N-(2,2-difluoroethyl)-4-{[6-(4-{[(4-fluorophenyl)-acetyl]amino}phenyl)[1,2,4]triazolo[1,5-a]pyridin-2-yl]amino}-3-methoxy-benzamide] yielded an IC50 (Mps-1 kinase [1]) of no more than 1 nM and an IC50 (Mps-1 kinase [2]) of no more than 1 nM.

`Cc1cc(C(=O)NCC(F)(F)F)ccc1Nc1nc2ccc(-c3ccc(C(=O)NCc4ccc(F)cc4)cc3)cn2n1` [Example 12.66, 4-[(6-{4-[(4-fluorobenzyl)-carbamoyl]phenyl}[1,2,4]triazolo [1,5-a]pyridin-2-yl)-amino]-3-methyl-N-(2,2,2-trifluoroethyl)benzamide] was tested, and the IC50 (Mps-1 kinase [1]) was 2 nM and the IC50 (Mps-1 kinase [2]) was no more than 1 nM.

`CCOc1cc(S(=O)(=O)CC)ccc1Nc1nc2ccc(-c3ccc(C(=O)NCc4ccc(F)cc4)cc3)cn2n1` [Example 02.26, 4-(2-{[2-ethoxy-4-(ethylsulfonyl)phenyl]amino}[1,2,4]triazolo[1,5-α]-pyridin-6-yl)-N-(4-fluorobenzyl)benzamide] was tested, and the IC50 (Mps-1 kinase [1]) was 6.1 nM and the IC50 (Mps-1 kinase [2]) was no more than 1 nM.

With `COc1cc(S(C)(=O)=O)ccc1Nc1nc2ccc(-c3ccc(NC(=O)Cc4ccc(F)cc4F)cc3)cn2n1` [Example 10.01] the IC50 (Mps-1 kinase [1]) was 17 nM and the IC50 (Mps-1 kinase [2]) was no more than 1 nM.

`CCS(=O)(=O)c1ccc(Nc2nc3ccc(-c4ccc(NC(=O)Cc5ccc(F)cc5)cc4)cn3n2)c(OC(F)F)c1` [Example 01.36, N-[4-(2-{[2-(difluoromethoxy)-4-(ethylsulfonyl)phenyl]amino}[1,2,4]-triazolo[1,5-α]pyridin-6-yl)phenyl]-2-(4-fluorophenyl)acetamide] gave an IC50 (Mps-1 kinase [1]) of no more than 1 nM and an IC50 (Mps-1 kinase [2]) of no more than 1 nM.

In the case of `COc1cc(C(=O)N(C)CCN(C)C)ccc1Nc1nc2ccc(-c3ccc(NC(=O)Cc4ccc(F)cc4)cc3)cn2n1` [Example 12.08, N-[2-(dimethylamino)ethyl]-4-{[6-(4-{[(4-fluorophenyl)-acetyl]amino}phenyl)[1,2,4]triazolo[1,5-a]pyridin-2-yl]amino}-3-methoxy-N-methylbenzamide], the IC50 (Mps-1 kinase [1]) is reported as no more than 1 nM and the IC50 (Mps-1 kinase [2]) is reported as no more than 1 nM.

For `Cc1cc([S@@+](C)[O-])ccc1Nc1nc2ccc(-c3ccc(C(=O)NCc4ccc(F)cc4)cc3)cn2n1` (stereo in doubt) [Example 12.69, N-(4-fluorobenzyl)-4-(2-{[2-methyl-4-(methylsulfinyl)-phenyl]amino}[1,2,4]triazolo [1,5-a]pyridin-6-yl)-benzamide], the IC50 (Mps-1 kinase [1]) was 4.5 nM and the IC50 (Mps-1 kinase [2]) was no more than 1 nM.

In the case of `Cc1cc(C(N)=O)ccc1Nc1nc2ccc(-c3ccc(NC(=O)Cc4ccc(F)cc4)cc3)cn2n1` [Example 12.28, 4-{[6-(4-{[(4-fluorophenyl)-acetyl]amino}phenyl)[1,2,4]triazolo[1,5-a]pyridin-2-yl]amino}-3-methyl-benzamide], the IC50 (Mps-1 kinase [1]) is reported as no more than 1 nM and the IC50 (Mps-1 kinase [2]) is reported as no more than 1 nM.

`Cc1cc(-c2ccc3nc(Nc4ccc(S(C)(=O)=O)cc4OCC(F)(F)F)nn3c2)ccc1C(=O)NCc1ccc(F)cc1F` [Example 12.80, N-(2,4-difluorobenzyl)-2-methyl-4-(2-{[4-(methyl-sulfonyl)-2-(2,2,2-trifluoro-ethoxy)phenyl]amino}[1,2,4]triazolo[1,5-a]pyridin-6-yl)-benzamide] was tested, and the IC50 (Mps-1 kinase [1]) was 18 nM and the IC50 (Mps-1 kinase [2]) was no more than 1 nM.

For `Cc1cc(S(C)(=O)=O)ccc1Nc1nc2ccc(-c3ccc(C(=O)NCc4ccc(Cl)cc4)cc3)cn2n1` [Example 12.74, N-(4-chlorobenzyl)-4-(2-{[2-methyl-4-(methylsulfonyl)-phenyl]amino}[1,2,4]triazolo [1,5-a]pyridin-6-yl)-benzamide], the IC50 (Mps-1 kinase [1]) was 16 nM and the IC50 (Mps-1 kinase [2]) was no more than 1 nM.

`CN(C)CCNC(=O)c1ccc(Nc2nc3ccc(-c4ccc(NC(=O)Cc5ccc(F)cc5)cc4)cn3n2)c(OCC(F)(F)F)c1` [Example 12.23, N-[2-(dimethylamino)ethyl]-4-{[6-(4-{[(4-fluorophenyl)-acetyl]amino}phenyl)[1,2,4]triazolo[1,5-a]pyridin-2-yl]amino}-3-(2,2,2-trifluoro-ethoxy)benzamide] gave an IC50 (Mps-1 kinase [1]) of no more than 1 nM and an IC50 (Mps-1 kinase [2]) of no more than 1 nM.

For `Cc1cc(C(=O)NCCF)ccc1Nc1nc2ccc(-c3ccc(NC(=O)Cc4ccc(F)cc4)cc3)cn2n1` [Example 12.30, N-(2-fluoroethyl)-4-{[6-(4-{[(4-fluorophenyl)acetyl]-amino}phenyl)[1,2,4]-triazolo[1,5-a]pyridin-2-yl]amino}-3-methyl-benzamide], the IC50 (Mps-1 kinase [1]) was 4.3 nM and the IC50 (Mps-1 kinase [2]) was no more than 1 nM.

With `O=C(Cc1ccc(F)cc1)Nc1ccc(-c2ccc3nc(Nc4ccc(F)cc4OC(F)F)nn3c2)cc1` [Example 12.27, N-[4-(2-{[2-(difluoro-methoxy)-4-fluorophenyl]-amino}[1,2,4]triazolo[1,5-a]pyridin-6-yl)phenyl]-2-(4-fluorophenyl)acetamide] the IC50 (Mps-1 kinase [1]) was 9 nM and the IC50 (Mps-1 kinase [2]) was no more than 1 nM.

For `CS(=O)(=O)c1ccc(Nc2nc3ccc(-c4ccc(C(=O)NCc5ccc(F)cc5)cc4)cn3n2)c(OC2CC2)c1` [Example 02.29, 4-(2-{[2-(cyclopropyloxy)-4-(methylsulfonyl)phenyl]amino}[1,2,4]triazolo-[1,5-α]pyridin-6-yl)-N-(4-fluorobenzyl)benzamide], the IC50 (Mps-1 kinase [1]) was 7.5 nM and the IC50 (Mps-1 kinase [2]) was no more than 1 nM.

With `Cc1ccc(CNC(=O)c2ccc(-c3ccc4nc(Nc5ccc([S@@+](C)[O-])cc5C)nn4c3)cc2)cc1` (stereo in doubt) [Example 12.78, N-(4-methylbenzyl)-4-(2-{[2-methyl-4-(methylsulfinyl)-phenyl]amino}[1,2,4]triazolo [1,5-a]pyridin-6-yl)-benzamide] the IC50 (Mps-1 kinase [1]) was 7.6 nM and the IC50 (Mps-1 kinase [2]) was no more than 1 nM.

Compound `COc1cc(CO)ccc1Nc1nc2ccc(-c3ccc(NC(=O)Cc4ccc(F)cc4)cc3)cn2n1` [Example 12.84, 2-(4-fluorophenyl)-N-[4-(2-{[4-(hydroxymethyl)-2-methoxyphenyl]amino}-[1,2,4]triazolo[1,5-α]pyridin-6-yl)phenyl]acetamide] has an IC50 (Mps-1 kinase [1]) of no more than 1 nM and an IC50 (Mps-1 kinase [2]) of no more than 1 nM.

`COc1cc([S@@+](C)[O-])c(F)cc1Nc1nc2ccc(-c3ccc(NC(=O)Cc4ccc(F)cc4)cc3)cn2n1` (stereo in doubt) [Example 12.14, N-[4-(2-{[5-fluoro-2-methoxy-4-(methylsulfinyl)-phenyl]amino}[1,2,4]-triazolo[1,5-a]pyridin-6-yl)-phenyl]-2-(4-fluorophenyl)-acetamide] showed an IC50 (Mps-1 kinase [1]) of 8.5 nM and an IC50 (Mps-1 kinase [2]) of no more than 1 nM.

In the case of `CCOc1cc(C(=O)N(C)CC)ccc1Nc1nc2ccc(-c3ccc(C(=O)NCc4ccc(F)cc4)cc3)cn2n1` [Example 12.56, 3-ethoxy-N-ethyl-4-[(6-{4-[(4-fluorobenzyl)carbamoyl]phenyl}[1,2,4]triazolo[1,5-a]pyridin-2-yl)amino]-N-methylbenzamide], the IC50 (Mps-1 kinase [1]) is reported as no more than 1 nM and the IC50 (Mps-1 kinase [2]) is reported as no more than 1 nM.
